The source of these data is ChEMBL document CHEMBL1147855, “Synthesis and evaluation of sulfonylurea derivatives as novel antimalarials” (Eur J Med Chem, 2007).

In one experiment the test system is Plasmodium falciparum. In words: Antimalarial activity against chloroquine-resistant Plasmodium falciparum W2 after 48 hrs by FACS. The format is functional, organism-based. The settings on record: W2, 48 h. On the technique in general: Flow cytometry measures light scatter and fluorescence of single cells or particles in a stream.
A short description of experiment [1]: Inhibition of hemoglobin hydrolysis in mouse erythrocytes at 5 mM after 18 hrs relative to control. Conditions: Erythrocyte. Format: cell-based.
The next experiment relates to Plasmodium berghei. In words: Antimalarial activity against Plasmodium berghei ANKA at 20 mg/kg intraperitoneal dose as reduced parasitaemia by Peter's assay. The format is functional. Set-up: scale not given: the % may be the effect or the level left.
The next experiment relates to Mus musculus. In words: Survival of NIH mice (Mus musculus) infected with Plasmodium berghei ANKA infected erythrocytes at 20 mg/kg, intraperitoneal after 4 days by Peter's test. The format is functional.

Broadly, the IC50 is the concentration at which inhibition is half-maximal. As usually defined, the inhibition is the percentage by which the read-out fell short of the control.

Molecules are shown by their SMILES.

`O=C(Nc1ccc(C(=O)/C=C/c2ccc3c(c2)OCO3)cc1)NS(=O)(=O)c1ccc(Cl)cc1` gave an IC50 in the experiment on Plasmodium falciparum of 9.7 µM. This molecule had an inhibition at 5000 µM in experiment [1] of 50.6%. This molecule also had an Activity in the experiment on Plasmodium berghei of 3.4%. This molecule yielded a Survival with Mus musculus of 2.16 days.

On to `Cc1ccc(S(=O)(=O)NC(=O)Nc2ccc(C(=O)/C=C/c3ccc(F)cc3)cc2)cc1`, for which the half-inhibitory concentration (IC50) in the experiment on Plasmodium falciparum was 10 µM.

`Cc1ccc(S(=O)(=O)NC(=O)Nc2ccc(C(=O)/C=C/c3ccc4c(c3)OCO4)cc2)cc1` had a half-inhibitory concentration (IC50) with Plasmodium falciparum of 9.6 µM.

For the molecule `Cc1ccc(S(=O)(=O)NC(=O)Nc2ccc(C(=O)/C=C/c3cc4ccccc4nc3Cl)cc2)cc1`, the IC50 with Plasmodium falciparum was 9.6 µM.

As to `COc1cc2cc(/C=C/C(=O)c3ccc(NC(=O)NS(=O)(=O)c4ccc(C)cc4)cc3)c(Cl)nc2cc1OC`, half-maximal inhibition in the experiment on Plasmodium falciparum (IC50) required 10 µM.

As to `O=C(Nc1ccc(C(=O)/C=C/c2ccc(F)cc2)cc1)NS(=O)(=O)c1ccc(Cl)cc1`, 10 µM corresponded to half-maximal inhibition in the experiment with Plasmodium falciparum (IC50). Moreover, at 5000 µM the inhibition in experiment [1] was 34.5%. This molecule also came in with an Activity in the experiment on Plasmodium berghei of 10.6%. The molecule also gave a Survival with Mus musculus of 1 days.

Molecule `COc1cc(/C=C/C(=O)c2ccc(NC(=O)NS(=O)(=O)c3ccc(Cl)cc3)cc2)cc(OC)c1OC` had an IC50 in the experiment on Plasmodium falciparum of 9.4 µM. In experiment [1], this molecule showed an inhibition at 5000 µM of 36.7%. Besides, the Activity with Plasmodium berghei worked out at 8%. In the experiment with Mus musculus, this molecule yielded a Survival of 1.83 days.

In the experiment on Plasmodium falciparum, `Cc1ccc(S(=O)(=O)NC(=O)Nc2ccc(C(=O)/C=C/c3ccc(F)cc3F)cc2)cc1` had a concentration for half-maximal inhibition (IC50) of 1.2 µM. For the same molecule, in experiment [1], 5000 µM produced 90.3% inhibition. The molecule further came in with an Activity with Plasmodium berghei of 15.2%. In the experiment with Mus musculus, the Survival came out at 1 days.

Regarding `COc1cc(/C=C/C(=O)c2ccc(NC(=O)NS(=O)(=O)c3ccc(C)cc3)cc2)cc(OC)c1OC`, 8.8 µM corresponded to half-maximal inhibition with Plasmodium falciparum (IC50).

In the case of `O=C(Nc1ccc(C(=O)/C=C/c2ccc(F)cc2F)cc1)NS(=O)(=O)c1ccc(Cl)cc1`, it took 2.1 µM to reach half-maximal inhibition in the experiment with Plasmodium falciparum (IC50). In the experiment on Plasmodium berghei, this molecule returned an Activity of 5.2%. For the same molecule, the Survival in the experiment with Mus musculus is 3 days.

Regarding `CCN(CC)CCCC(C)Nc1ccnc2cc(Cl)ccc12` (configuration not stated) [CHLOROQUINE], the Activity in the experiment with Plasmodium berghei is listed as 3.66%.

In experiment [1], `CC(=O)N[C@@H](CC(C)C)C(=O)N[C@@H](CC(C)C)C(=O)N[C@H](C=O)CCCNC(=N)N` [LEUPEPTIN] had an inhibition at 5000 µM of 87%.

In experiment [1], `CC(C)CC(=O)N[C@H](C(=O)N[C@H](C(=O)N[C@@H](CC(C)C)[C@@H](O)CC(=O)N[C@@H](C)C(=O)N[C@@H](CC(C)C)[C@@H](O)CC(=O)O)C(C)C)C(C)C` [PEPSTATIN] yielded an inhibition at 5000 µM of 91.9%.
